Data published in US6495118B1, “Lipophilic metal complexes for necrosis and infarction imaging” (Schering Aktiengesellschaft, priority 1997, dated 2002).

Experiments:
plasma protein = details: cited from earlier work
[1] = tested on: rats with induced renal infarctions (necrotic area of the kidney); assay: MRI experiments on animals with induced renal infarctions; type: in vivo; details: rat
Description: Plasma protein bond: 10% (Europ. Workshop on Magn. Reson. in Medicine, Santiago de Compostela, Spain, Sep. 28-30, 1994).
The induction of the renal infarctions was carried out on anesthetized (Rompun®/Ketavet®, i.p.) rats (Han. Wistar, Schering SPF, about 200 g of body weight) by occlusion of a (caudal) branch of the left renal artery. The contrast medium was administered (dose: 300 or 500 μmol of Gd/kg of body weight) about 24 hours after the induction of infarction. The animals were studied before and up to 24 hours after contrast medium administration by MR-tomography (SISCO SIS 85, 2 tesla; SE sequence, TR: 400 ms, TE: 15 ms, nt=4, ni=128, FOV: 12-7 cm, SD≈3 mm, 1 layer each axial or coronary).
After the MRI experiments were completed, the anesthetized animals were sacrificed by exsanguination (via the V. cava), and both kidneys were prepared. To verify the infarction (size and position), the left (infarcted) kidney was removed and sliced into disks, and then NBT (“vital”) coloring was carried out.

Structure (SMILES): CCOc1ccc(CC(CN(CCN(CC(=O)[O-])CC(=O)[O-])CC(=O)[O-])N(CC(=O)[O-])CC(=O)[O-])cc1.[Gd+3].[Na+].[Na+] (centres unmarked) [Eovist]
- Plasma protein bond (plasma protein): 10%
- MRI appearance of nonperfused portion of the kidneys ([1]; 300 or 500 μmol of Gd/kg i.v., immediately after substance administration): hypointense area
- MRI signal (enhancement) in the necrotic area of the kidneys ([1]; 300 or 500 μmol of Gd/kg i.v., late phase (about 4-6 hours p.i.), all animals studied): considerable signal increase (enhancement)
- MRI signal intensity in the non-perfused area ([1]; 300 or 500 μmol of Gd/kg i.v., starting at about 15-30 minutes p.i.): increased somewhat
- Correlation of MRI delineation of the necrotic area with histological vital (NBT) coloring ([1]; infarcted left kidney): correlated very well
